The text below walks through data of ChEMBL document CHEMBL5154756 (Bioorg Med Chem, 2022).

Molecules are shown by their SMILES. Activity calls are given as the source filed them. No cut-off for these calls is given here.

For one series, the system named is MCF7. Description: Antiproliferative activity against human MCF7 cells over expressing GLUT1 measured after 72 hrs by MTT assay. The series is classed as functional, cell-based. The following applies: MCF7, 72 h. Background: Formazan colour is commonly taken as a measure of viable cells.
In series [1] the test system is HT-29. Description: Antiproliferative activity against human HT-29 cells over expressing GLUT1 measured after 72 hrs by MTT assay. The class given is functional, cell-based. The following applies: HT-29, 72 h.
In a further series the test system is Hep 3B2. Description: Antiproliferative activity against human Hep3B cells measured after 72 hrs by MTT assay. The series is classed as functional, cell-based.
The nature of series [2]: Selectivity ratio of IC50 for human Hep3B cells to IC50 for human MCF7 cells. The series is classed as functional.
Series [3] is described as follows: Selectivity ratio of IC50 for human Hep3B cells to IC50 for human HT-29 cells. The series is classed as functional.
Series [4] has as its target T1, Tubulin (Homo sapiens) (UniProt P68371+Q9H4B7+P0DPH7+P68366+Q13509+Q71U36+P04350+Q3ZCM7+P07437+P68363+Q9BQE3+Q6PEY2+Q13885+Q9BVA1+Q9BUF5). Nature of the series: Inhibition of tubulin polymerization in human A549 cells assessed as appearance of short microtubule at 0.766 uM measured after 24 hrs by immunofluorescence confocal microscopic analysis. The class given is cell-based.

Series [5] is described as follows: Cytotoxicity against HUVEC measured after 72 hrs by MTT assay. The series is classed as toxicity, cell-based. The following applies: human, HUVEC cells.
Series [6] relates to HT-29. Description: Antiproliferative activity against human HT-29 cells over expressing GLUT1 assessed as cell viability at 4 uM measured after 48 hrs by MTT assay relative to control. The following applies: read-out: Activity. The series is classed as functional.
The subject of series [7] is HT-29. Nature of the series: Antiproliferative activity against human HT-29 cells over expressing GLUT1 assessed as cell viability at 8 uM measured after 48 hrs by MTT assay relative to control. The class given is functional. The following applies: read-out: Activity.
Series [8] concerns HT-29. Description: Antiproliferative activity against human HT-29 cells over expressing GLUT1 assessed as cell viability at 4 uM measured after 48 hrs in presence of GLUT1-specific inhibitor quercetin by MTT assay relative to control. The class given is functional. The following applies: read-out: Activity.
The subject of series [9] is HT-29. Nature of the series: Antiproliferative activity against human HT-29 cells over expressing GLUT1 assessed as cell viability at 8 uM measured after 48 hrs in presence of GLUT1-specific inhibitor quercetin by MTT assay relative to control. The class given is functional. The following applies: read-out: Activity.
In a further series the target is Tubulin (Sus scrofa) (UniProt P02554+P02550). Description: Inhibition of porcine brain tubulin polymerization assessed as inhibition of microtubule polymerization measured at 1 min interval for 90 mins by microplate reader method. The following applies: dose 12.5-25 µM, DDE = dose-dependent effect.
Tubulin (Sus scrofa), sequence (P02550 whole entry, looked up): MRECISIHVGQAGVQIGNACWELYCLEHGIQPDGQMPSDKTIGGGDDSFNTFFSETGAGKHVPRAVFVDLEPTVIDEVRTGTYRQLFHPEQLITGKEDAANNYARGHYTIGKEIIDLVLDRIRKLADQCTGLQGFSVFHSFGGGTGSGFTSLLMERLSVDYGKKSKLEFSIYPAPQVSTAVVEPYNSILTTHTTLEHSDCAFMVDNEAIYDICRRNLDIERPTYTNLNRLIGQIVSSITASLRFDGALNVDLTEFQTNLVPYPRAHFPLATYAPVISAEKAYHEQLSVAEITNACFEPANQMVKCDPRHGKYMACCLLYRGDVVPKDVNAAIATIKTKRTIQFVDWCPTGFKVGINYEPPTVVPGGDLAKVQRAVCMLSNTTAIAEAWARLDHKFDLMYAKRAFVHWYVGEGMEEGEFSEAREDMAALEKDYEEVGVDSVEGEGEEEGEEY
Tubulin (Sus scrofa), sequence (P02554 whole entry, looked up): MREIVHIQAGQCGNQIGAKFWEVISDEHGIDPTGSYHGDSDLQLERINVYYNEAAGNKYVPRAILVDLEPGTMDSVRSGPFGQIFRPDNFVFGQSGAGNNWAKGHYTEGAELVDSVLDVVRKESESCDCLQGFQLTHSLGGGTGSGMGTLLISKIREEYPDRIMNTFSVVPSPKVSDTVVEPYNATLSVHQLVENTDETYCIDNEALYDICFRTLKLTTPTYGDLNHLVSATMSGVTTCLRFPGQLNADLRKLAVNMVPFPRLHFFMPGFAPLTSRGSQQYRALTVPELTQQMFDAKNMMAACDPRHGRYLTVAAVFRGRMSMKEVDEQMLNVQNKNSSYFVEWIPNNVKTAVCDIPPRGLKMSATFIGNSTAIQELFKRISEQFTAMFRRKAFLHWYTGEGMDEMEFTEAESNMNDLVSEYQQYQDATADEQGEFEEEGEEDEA
Series [10] concerns the target T1, Tubulin (Homo sapiens). Nature of the series: Inhibition of tubulin polymerization in human A549 cells assessed as appearance of wrapped microtubule around nucleus at 0.766 uM measured after 24 hrs by immunofluorescence confocal microscopic analysis. The series is classed as cell-based.
The test system of series [11] is HT-29. Nature of the series: Antiproliferative activity against human HT-29 cells over expressing GLUT1 assessed as cell viability measured after 48 hrs by MTT assay relative to control. The class given is functional.
In series [12] the test system is HT-29. Nature of the series: Antiproliferative activity against human HT-29 cells over expressing GLUT1 assessed as cell viability measured after 48 hrs in presence of GLUT1-specific inhibitor quercetin by MTT assay relative to control. The class given is functional.

As for `COc1cc2c(c(OC)c1OC)-c1ccc(OC)c(=O)cc1[C@@H](NC(=O)COCC(=O)OC[C@H]1OC(O)[C@H](O)[C@@H](O)[C@@H]1O)CC2` (some centres not stated), the figures for the half-maximal inhibitory concentration (IC50) in the series with MCF7, with HT-29 [1] and with Hep 3B2 were 3.08 µM, 0.24 µM and 4.57 µM, respectively. For the same compound, the “Ratio IC50” value is 1.48 in series [2] and 19.04 in series [3].

`COc1cc2c(c(OC)c1OC)-c1ccc(OC)c(=O)cc1[C@@H](NC(=O)CCCCC(=O)OC[C@H]1OC(O)[C@@H](O)[C@@H](O)[C@@H]1O)CC2` (some centres not stated): the IC50 in the series with MCF7, in the series with HT-29 [1] and in the series with Hep 3B2 was over 10 µM each time.

For the compound `COc1cc2c(c(OC)c1OC)-c1ccc(OC)c(=O)cc1[C@@H](NC(=O)COCC(=O)O[C@H]1[C@H](O)[C@@H](CO)OC(O)[C@@H]1O)CC2` (some centres not stated), the IC50 in the series with MCF7 was 1.2 µM; in the series on HT-29 [1], 0.83 µM; with Hep 3B2, over 10 µM.

As to `COc1cc2c(c(OC)c1OC)-c1ccc(OC)c(=O)cc1[C@@H](NC(=O)CCCCC(=O)O[C@H]1[C@H](O)[C@@H](CO)OC(O)[C@@H]1O)CC2` (some centres not stated), the IC50 in the series with MCF7, in the series on HT-29 [1] and in the series with Hep 3B2 was over 10 µM each time.

Turning to `COc1cc2c(c(OC)c1OC)-c1ccc(OC)c(=O)cc1[C@@H](NC(=O)CSCC(=O)O[C@H]1[C@H](O)[C@@H](CO)OC(O)[C@@H]1O)CC2` (some centres not stated), the inhibition entry at Tubulin (Homo sapiens) [4] and at Tubulin (Homo sapiens) [10] was “Active” throughout. Also, the 50% inhibitory concentration (IC50) with MCF7 is 0.65 µM; with HT-29 [1], 0.79 µM; in the series on Hep 3B2, 8.56 µM. Besides, the “Ratio IC50” value in [2] is 13.17; in series [3] it was 10.84. In addition, in series [5], the concentration for half-maximal inhibition (IC50) at 72 h stood at 1.88 µM. For the same compound, the results for the viability at 4 µM in the series on HT-29 [6] and in the series with HT-29 [8] were 13.2% and 22.8%, respectively. Further, the viability at 8 µM in the series on HT-29 [7] worked out at 12.5%; in the series on HT-29 [9] it was 20.1%. Besides, at Tubulin (Sus scrofa), the inhibition entry is “Dde”.

As to `COc1cc2c(c(OC)c1OC)-c1ccc(OC)c(=O)cc1[C@@H](NC(=O)CCCC(=O)OC[C@H]1OC(O)[C@H](O)[C@@H](O)[C@@H]1O)CC2` (some centres not stated), the IC50 in the series with MCF7 was over 10 µM; in the series on HT-29 [1], 4.14 µM; with Hep 3B2 it was over 10 µM.

With `COc1cc2c(c(OC)c1OC)-c1ccc(OC)c(=O)cc1[C@@H](NC(=O)CCC(=O)OC[C@H]1OC(O)[C@@H](O)[C@@H](O)[C@@H]1O)CC2` (some centres not stated), the 50% inhibitory concentration (IC50) was found to be 0.67 µM with MCF7 and 2.91 µM with Hep 3B2. Moreover, in series [2], the “Ratio IC50” value turned out to be 4.34.

Consider `COc1cc2c(c(OC)c1OC)-c1ccc(OC)c(=O)cc1[C@@H](NC(=O)CCCC(=O)OC[C@H]1OC(O)[C@@H](O)[C@@H](O)[C@@H]1O)CC2` (some centres not stated), for which the IC50 with MCF7, in the series with HT-29 [1] and in the series with Hep 3B2 was over 10 µM each time.

On to `COc1cc2c(c(OC)c1OC)-c1ccc(OC)c(=O)cc1[C@@H](NC(=O)CSCC(=O)OC[C@H]1OC(O)[C@@H](O)[C@@H](O)[C@@H]1O)CC2` (some centres not stated), for which the IC50 in the series with MCF7 was 6.05 µM; in the series with HT-29 [1], 2.11 µM; in the series with Hep 3B2, over 10 µM.

In the case of `COc1cc2c(c(OC)c1OC)-c1ccc(OC)c(=O)cc1[C@@H](NC(=O)CCC(=O)O[C@H]1[C@H](O)[C@@H](CO)OC(O)[C@@H]1O)CC2` (some centres not stated), the IC50 amounted to 0.76 µM with MCF7, 0.98 µM in the series with HT-29 [1] and 7.03 µM in the series on Hep 3B2. Besides, the “Ratio IC50” value in series [2] amounted to 9.25; in series [3] it was 7.17.

In the case of `COc1cc2c(c(OC)c1OC)-c1ccc(OC)c(=O)cc1[C@@H](NC(=O)CCC(=O)OC[C@H]1OC(O)[C@H](O)[C@@H](O)[C@@H]1O)CC2` (some centres not stated), the IC50 came to 1.15 µM with MCF7, 1.09 µM in the series on HT-29 [1] and 6.35 µM with Hep 3B2. Further, the “Ratio IC50” value in [2] is on record as 5.52; in series [3] it was 5.83.

Take `COc1cc2c(c(OC)c1OC)-c1ccc(OC)c(=O)cc1[C@@H](NC(C)=O)CC2` [COLCHICINE]: the Activity amounted to 12.7% in the series on HT-29 [11] and 14.8% with HT-29 [12]. Moreover, the 50% inhibitory concentration (IC50) in the series on MCF7 turned out to be 0.043 µM; with Hep 3B2, 0.14 µM. The compound also gave an IC50 at 72 h in [5] of 0.012 µM.

Turning to `COc1cc2c(c(OC)c1OC)-c1ccc(OC)c(=O)cc1[C@@H](NC(=O)CCCCC(=O)OC[C@H]1OC(O)[C@H](O)[C@@H](O)[C@@H]1O)CC2` (some centres not stated), the IC50 in the series on MCF7 is over 10 µM; with HT-29 [1], 9.73 µM; in the series on Hep 3B2, over 10 µM.

With `COc1cc2c(c(OC)c1OC)-c1ccc(OC)c(=O)cc1[C@@H](NC(=O)CSCC(=O)OC[C@H]1OC(O)[C@H](O)[C@@H](O)[C@@H]1O)CC2` (some centres not stated), the IC50 with MCF7 stood at 3.56 µM; in the series on HT-29 [1], 1.16 µM; with Hep 3B2, 9.26 µM. The “Ratio IC50” value is given as 2.6 in series [2] and 7.98 in [3].

On to `COc1cc2c(c(OC)c1OC)-c1ccc(OC)c(=O)cc1[C@@H](NC(=O)CCCC(=O)O[C@H]1[C@H](O)[C@@H](CO)OC(O)[C@@H]1O)CC2` (some centres not stated), for which the IC50 was determined as 7.17 µM in the series on MCF7, 6.47 µM with HT-29 [1] and 8.91 µM with Hep 3B2. For the same compound, the “Ratio IC50” value was found to be 1.24 in series [2] and 1.38 in series [3].

As for `COc1cc2c(c(OC)c1OC)-c1ccc(OC)c(=O)cc1[C@@H](NC(=O)COCC(=O)OC[C@H]1OC(O)[C@@H](O)[C@@H](O)[C@@H]1O)CC2` (some centres not stated), the IC50 was 2.2 µM in the series with MCF7, 2.93 µM with HT-29 [1] and 6.43 µM in the series with Hep 3B2. Further, the “Ratio IC50” value was 2.92 in series [2] and 2.19 in series [3].

By IC50 is commonly meant the concentration at which inhibition is half-maximal. A lower IC50 goes with greater potency in that assay.
